# Assay results: patent US20240368150A1 (Hoffmann-La Roche Inc., priority 2021, published 2024)
# Read-outs that look alike come from different tables or passages of the source.
# Columns and labels:
# primary human T-cells [1] = assay: Proliferation assay after 5 days (CellTiter-Glo, CD3 stimulation; PBS counter screen); format: cell-based; conditions: Homo sapiens, T-cell, 120 h, CD3 stimulation; for Emax: 5 days, normalized to reference compound A1 as stimulator control = 100%, DMSO neutral control, read-out: Emax proliferation (% activation); for EC50: primary human T-cells, CellTiter-Glo after 5 days, EC50 of fitted sigmoidal curve, read-out: Tcell Proliferation CD3 EC50
# In short: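 Proliferation is measured 5 days post-treatment as ATP-dependent luminescence. Flags mark compounds that activated unstimulated cells or harmed viability.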
# primary human T-cells [2] = test system: primary human T-cells
SMILES,EC50 (primary human T-cells [2]) [nM],Emax (primary human T-cells [1]) [%],EC50 (primary human T-cells [1]) [nM]
"N[C@H]1CS(=O)(=O)c2cc(F)c(-c3nnc(NC45CC(F)(C4)C5)o3)cc2N(Cc2ccc(Cl)cc2)C1=O [Example 499, (3R)-3-amino-5-[(4-chlorophenyl)methyl]-8-fluoro-7-[5-[(3-fluoro-1-bicyclo[1.1.1]pentanyl)amino]-1,3,4-oxadiazol-2-yl]-1,1-dioxo-2,3-dihydro-1λ^6,5-benzothiazepin-4-one]",2230,68,768
"N[C@H]1CS(=O)(=O)c2cc(F)c(-c3nnc(NC45CC(Cl)(C4)C5)o3)cc2N(Cc2ccc(Cl)cc2)C1=O [Example 500, (3R)-3-amino-7-[5-[(3-chloro-1-bicyclo[1.1.1]pentanyl)amino]-1,3,4-oxadiazol-2-yl]-5-[(4-chlorophenyl)methyl]-8-fluoro-1,1-dioxo-2,3-dihydro-1λ^6.5-benzothiazepin-4-one]",911,97,1230
"N[C@H]1CS(=O)(=O)c2cc(F)c(-c3nnc(NC45CC(C4)C5)o3)cc2N(Cc2ccc(Cl)cc2)C1=O [Example 501, (3R)-3-amino-7-[5-(1-bicyclo[1.1.1]pentanylamino)-1,3,4-oxadiazol-2-yl]-5-[(4-chlorophenyl)methyl]-8-fluoro-1,1-dioxo-2,3-dihydro-1λ^6.5-benzothiazepin-4-one]",3120,92,473
"CC(F)(F)CNc1nnc(-c2cc3c(cc2F)S(=O)(=O)C[C@H](N)C(=O)N3Cc2ccc(Cl)cc2)o1 [Example 502, (3R)-3-amino-5-[(4-chlorophenyl)methyl]-7-[5-(2,2-difluoropropylamino)-1,3,4-oxadiazol-2-yl]-8-fluoro-1,1-dioxo-2,3-dihydro-1λ^6,5-benzothiazepin-4-one]",> 10000,72,4460
"C[C@@H](COC(F)(F)F)Nc1nnc(-c2cc3c(cc2F)S(=O)(=O)C[C@H](N)C(=O)N3Cc2ccc(Cl)cc2)o1 [Example 503, (3R)-3-amino-5-[(4-chlorophenyl)methyl]-8-fluoro-1,1-dioxo-7-[5-[[(1S)-1-methyl-2-(trifluoromethoxy)ethyl]amino]-1,3,4-oxadiazol-2-yl]-2,3-dihydro-1λ^6,5-benzothiazepin-4-one]",3090,135,371
"N[C@H]1CS(=O)(=O)c2cc(F)c(-c3nnc(NC4CC(C(F)(F)F)C4)o3)cc2N(Cc2ccc(Cl)cc2)C1=O (stereo partly drawn) [Example 504, (3R)-3-amino-5-[(4-chlorophenyl)methyl]-8-fluoro-1,1-dioxo-7-[5-[[3-(trifluoromethyl)cyclobutyl]amino]-1,3,4-oxadiazol-2-yl]-2,3-dihydro-1λ^6,5-benzothiazepin-4-one]",1230,103,1110
"CC(CC(F)(F)F)Nc1nnc(-c2cc3c(cc2F)S(=O)(=O)C[C@H](N)C(=O)N3Cc2ccc(Cl)cc2)o1 (stereo partly drawn) [Example 506, (3R)-3-amino-5-[(4-chlorophenyl)methyl]-8-fluoro-1,1-dioxo-7-[5-[(3,3,3-trifluoro-1-methyl-propyl)amino]-1,3,4-oxadiazol-2-yl]-2,3-dihydro-1λ^6.5-benzothiazepin-4-one]",1320,88,243
"CC(C)(C)n1nc(-c2cc3c(cc2F)S(=O)(=O)C[C@H](N)C(=O)N3Cc2ccc(Cl)cc2)oc1=O [Example 510, 3-tert-butyl-5-[(3R)-3-amino-5-[(4-chlorophenyl)methyl]-8-fluoro-1,1,4-trioxo-2,3-dihydro-1λ^6,5-benzothiazepin-7-yl]-1,3,4-oxadiazol-2-one]",91.7,129,403
"COC(=O)N1CC2CC(c3nc(-c4cc5c(cc4F)[S+]([O-])C[C@H](N)C(=O)N5Cc4ccc(OC(F)(F)C(F)F)cc4)no3)(C2)C1 (stereo partly drawn) [Example 511, methyl 1-[3-[(3R)-3-amino-8-fluoro-1,4-dioxo-5-[[4-(1,1,2,2-tetrafluoroethoxy)phenyl]methyl]-2,3-dihydro-1λ^4,5-benzothiazepin-7-yl]-1,2,4-oxadiazol-5-yl]-3-azabicyclo[3.1.1]heptane-3-carboxylate]",7820,104,6620
"COC(=O)N1CC2CC(c3nc(-c4cc5c(cc4F)S(=O)(=O)C[C@H](N)C(=O)N5Cc4ccc(OC(F)(F)C(F)F)cc4)no3)(C2)C1 [Example 512, methyl 1-[3-[(3R)-3-amino-8-fluoro-1,1,4-trioxo-5-[[4-(1,1,2,2-tetrafluoroethoxy)phenyl]methyl]-2,3-dihydro-1λ^6,5-benzothiazepin-7-yl]-1,2,4-oxadiazol-5-yl]-3-azabicyclo[3.1.1]heptane-3-carboxylate]",993,162,
"COC(F)(c1nc(-c2cc3c(cc2F)S(=O)(=O)C[C@H](N)C(=O)N3Cc2ccc(F)cc2)no1)C(F)(F)F (stereo partly drawn) [Example 513, (3R)-3-amino-8-fluoro-5-[(4-fluorophenyl)methyl]-1,1-dioxo-7-[5-(1,2,2,2-tetrafluoro-1-methoxy-ethyl)-1,2,4-oxadiazol-3-yl]-2,3-dihydro-1λ^6,5-benzothiazepin-4-one]",307,157,285
"CC(C)(C)c1nc(-c2cc3c(cc2F)S(=N)(=O)C[C@H](N)C(=O)N3Cc2ccc(Cl)cc2)no1 (stereo partly drawn) [Example 516, (3R)-3-amino-7-(5-tert-butyl-1,2,4-oxadiazol-3-yl)-5-[(4-chlorophenyl)methyl]-8-fluoro-1-imino-1-oxo-2,3-dihydro-1λ^6,5-benzothiazepin-4-one]",2740,51,8330
"COC(=O)N1CC2CC(c3nc(-c4cc5c(cc4F)S(=N)(=O)C[C@H](N)C(=O)N5Cc4ccc(OC(F)(F)C(F)F)cc4)no3)(C2)C1 (stereo partly drawn) [Example 520, methyl 1-[3-[(3R)-3-amino-8-fluoro-1-imino-1,4-dioxo-5-[[4-(1,1,2,2-tetrafluoroethoxy)phenyl]methyl]-2,3-dihydro-1λ^6,5-benzothiazepin-7-yl]-1,2,4-oxadiazol-5-yl]-3-azabicyclo[3.1.1]heptane-3-carboxylate]",1150,42,267
"CCc1ncn(-c2cc3c(cc2F)S(=O)(=O)C[C@H](N)C(=O)N3Cc2ccc(Cl)cc2)n1 [Example 525, (3R)-3-amino-5-[(4-chlorophenyl)methyl]-7-(3-ethyl-1,2,4-triazol-1-yl)-8-fluoro-1,1-dioxo-2,3-dihydro-1λ^6,5-benzothiazepin-4-one]",3510,67,935

# Further lines, with some results ahead:
EC50 (primary human T-cells [2]) [nM],SMILES,Emax (primary human T-cells [1]) [%],EC50 (primary human T-cells [1]) [nM]
191,"N[C@H]1CS(=O)(=O)c2cc(F)c(-c3nnc(N4CC5(CCCO5)C4)o3)cc2N(Cc2ccc(Cl)cc2)C1=O [Example 505, (3R)-3-amino-5-[(4-chlorophenyl)methyl]-8-fluoro-7-[5-(5-oxa-2-azaspiro[3.4]octan-2-yl)-1,3,4-oxadiazol-2-yl]-1,1-dioxo-2,3-dihydro-1λ^6,5-benzothiazepin-4-one]",94,182
8040,"CC1CN(Cc2nnc(-c3cc4c(cc3F)SC[C@H](N)C(=O)N4Cc3ccc(Cl)cc3)o2)C1 [Example 507, (3R)-3-amino-5-[(4-chlorophenyl)methyl]-8-fluoro-7-[5-[(3-methylazetidin-1-yl)methyl]-1,3,4-oxadiazol-2-yl]-2,3-dihydro-1,5-benzothiazepin-4-one]",74,2230
459,"CC(C)(C)c1nnc(-c2cc3c(cc2F)S(=O)(=O)C[C@H](N)C(=O)N3Cc2ccc(Cl)cc2)s1 [Example 508, (3R)-3-amino-7-(5-tert-butyl-1,3,4-thiadiazol-2-yl)-5-[(4-chlorophenyl)methyl]-8-fluoro-1,1-dioxo-2,3-dihydro-1λ^6,5-benzothiazepin-4-one]",110,396
1920,"COC(F)(c1nc(-c2cc3c(cc2F)[S+]([O-])C[C@H](N)C(=O)N3Cc2ccc(F)cc2)no1)C(F)(F)F (stereo partly drawn) [Example 514, (3R)-3-amino-8-fluoro-5-[(4-fluorophenyl)methyl]-1-oxo-7-[5-(1,2,2,2-tetrafluoro-1-methoxy-ethyl)-1,2,4-oxadiazol-3-yl]-2,3-dihydro-1λ^4,5-benzothiazepin-4-one]",105,1950
4070,"COC(F)(c1nc(-c2cc3c(cc2F)S(=N)(=O)C[C@H](N)C(=O)N3Cc2ccc(Cl)cc2)no1)C(F)(F)F (stereo partly drawn) [Example 515, (3R)-3-amino-5-[(4-chlorophenyl)methyl]-8-fluoro-1-imino-1-oxo-7-[5-(1,2,2,2-tetrafluoro-1-methoxy-ethyl)-1,2,4-oxadiazol-3-yl]-2,3-dihydro-1λ^6,5-benzothiazepin-4-one]",63,4910
5530,"CN=S1(=O)C[C@H](N)C(=O)N(Cc2ccc(OC(F)(F)F)cc2)c2cc(-c3nnc(C(C)(C)C)o3)c(F)cc21 (stereo partly drawn) [Example 519, (3R)-3-amino-7-(5-tert-butyl-1,3,4-oxadiazol-2-yl)-8-fluoro-1-methylimino-1-oxo-5-[[4-(trifluoromethoxy)phenyl]methyl]-2,3-dihydro-1λ^6,5-benzothiazepin-4-one]",72,4370
> 10000,"Cc1cc2c(cc1-c1nnc(C3CN(C)CC(F)(F)C3)o1)N(Cc1ccc(Cl)cc1)C(=O)[C@@H](N)CS2(=O)=O (stereo partly drawn) [Example 524, (3R)-3-amino-5-[(4-chlorophenyl)methyl]-7-[5-(5,5-difluoro-1-methyl-3-piperidyl)-1,3,4-oxadiazol-2-yl]-8-methyl-1,1-dioxo-2,3-dihydro-1λ^6,5-benzothiazepin-4-one]",80,4270
